# Legend:
# Human KLK1 = Human KLK1 (Homo sapiens (Human), UniProt P06870); assay: Determination of the IC50 for KLK1 (fluorogenic substrate H-DVal-Leu-Arg-AFC); assay type: biochemical
# In short: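 Inhibition read as initial rate via optical absorbance change at 410 nm, giving IC50. Reactions combined human KLK1, the substrate H-DVal-Leu-Arg-AFC and varied compound concentrations at 25° C.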
# Human plasma kallikrein = Human plasma kallikrein (Homo sapiens (Human), UniProt P03952); assay: Determination of the IC50 for plasma kallikrein (fluorogenic substrate H-DPro-Phe-Arg-AFC); assay type: biochemical; conditions: class symbols A-D, read-out: IC50 (human PKal)
# In short: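 IC50 values come from initial rates, monitored as the change in absorbance at 410 nm, of residual enzyme activity. Test compound was present at various concentrations with the fluorogenic substrate H-DPro-Phe-Arg-AFC, and the reaction was run at 25° C.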
# [1] = Solubility after 24 hrs in Fasted State Simulated Intestinal Fluid (FaSSIF); assay type: physicochemical; conditions: Fasted State Simulated Intestinal Fluid (FaSSIF), thermodynamic from solid, 24 hrs at 37° C., nominal concentration 1 mg/mL (as free base)
# In short: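 Compound at nominal 1 mg/mL (as free base) in freshly prepared FaSSIF, shaken 24 h at 37 °C, ~500 rpm. After centrifugation at 15,000 g for 10 min at 37 °C, dissolved concentration measured by LCMS.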
# [2] = Pharmacokinetics following a single oral dose in male Sprague-Dawley rats; assay type: in vivo; conditions: rat, nominal 5 mg/kg in 10% DMSO/10% cremophor/80% SWFI, plasma
# Protocol: Pharmacokinetic studies of the compounds in Table 14 were performed to assess the pharmacokinetics following a single oral dose in male Sprague-Dawley rats. Two rats were given a single po dose of 5 mL/kg of a nominal 1 mg/mL (5 mg/kg) composition of test compound in 10% DMSO/10% cremophor/80% SWFI vehicle. Following dosing, blood samples were collected over a period of […]. Sample times were 5, 15 and 30 minutes then 1, 2, 4, 6, 8 and 12 hours. Following collection, blood samples were centrifuged and the plasma fraction analysed for concentration of test compound by LCMS.
# Human FXIa = Human FXIa (Homo sapiens (Human), UniProt P03951); assay: Determination of the % inhibition for FXIa (fluorogenic substrate Z-Gly-Pro-Arg-AFC; 40 μM or IC50); assay type: biochemical
# In short: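 Inhibition measured from initial reaction rate, followed as absorbance change at 410 nm, with substrate Z-Gly-Pro-Arg-AFC at 25 °C. Compound tested at a single 40 μM dose for percent inhibition, or across several concentrations to derive IC50 against human FXIa.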
# Chain of Human plasma kallikrein (P03952 391-638): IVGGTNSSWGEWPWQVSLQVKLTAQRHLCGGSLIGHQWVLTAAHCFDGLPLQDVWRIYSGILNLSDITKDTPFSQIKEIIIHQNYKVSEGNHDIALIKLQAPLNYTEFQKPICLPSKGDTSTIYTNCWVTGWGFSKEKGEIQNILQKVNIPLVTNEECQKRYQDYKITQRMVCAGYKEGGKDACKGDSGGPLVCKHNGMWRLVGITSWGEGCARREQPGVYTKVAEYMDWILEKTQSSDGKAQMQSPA
# Chain of Human plasma kallikrein (P03952 20-390 partner): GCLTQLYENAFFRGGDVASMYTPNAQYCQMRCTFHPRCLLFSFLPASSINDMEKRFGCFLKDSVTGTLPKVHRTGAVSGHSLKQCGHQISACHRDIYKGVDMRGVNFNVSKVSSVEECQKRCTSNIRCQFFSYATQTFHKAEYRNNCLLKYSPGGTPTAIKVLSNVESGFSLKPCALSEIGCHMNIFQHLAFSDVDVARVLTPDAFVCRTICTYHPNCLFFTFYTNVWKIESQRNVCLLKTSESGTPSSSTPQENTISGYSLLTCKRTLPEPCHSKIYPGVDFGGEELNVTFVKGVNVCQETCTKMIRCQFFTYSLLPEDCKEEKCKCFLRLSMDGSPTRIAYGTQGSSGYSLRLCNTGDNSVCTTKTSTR
# Chain of Human FXIa (P03951 388-625): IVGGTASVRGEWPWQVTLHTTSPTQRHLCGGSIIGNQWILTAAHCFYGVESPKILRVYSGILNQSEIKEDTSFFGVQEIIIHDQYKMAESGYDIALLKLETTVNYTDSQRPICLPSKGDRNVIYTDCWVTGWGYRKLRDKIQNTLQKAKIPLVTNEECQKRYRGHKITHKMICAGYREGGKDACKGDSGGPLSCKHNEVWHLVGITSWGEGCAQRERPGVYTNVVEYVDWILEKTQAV
# Chain of Human FXIa (P03951 19-387 partner): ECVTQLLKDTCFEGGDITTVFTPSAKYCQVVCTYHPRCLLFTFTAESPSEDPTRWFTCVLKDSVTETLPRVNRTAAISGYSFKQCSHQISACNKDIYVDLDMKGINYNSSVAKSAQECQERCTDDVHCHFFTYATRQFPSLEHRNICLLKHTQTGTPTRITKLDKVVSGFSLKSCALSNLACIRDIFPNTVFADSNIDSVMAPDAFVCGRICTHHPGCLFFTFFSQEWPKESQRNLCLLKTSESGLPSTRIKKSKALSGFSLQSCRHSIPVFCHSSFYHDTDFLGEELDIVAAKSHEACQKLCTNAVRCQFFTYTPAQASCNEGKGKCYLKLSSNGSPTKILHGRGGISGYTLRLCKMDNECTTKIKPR
# Chain of Human KLK1 (P06870 25-262): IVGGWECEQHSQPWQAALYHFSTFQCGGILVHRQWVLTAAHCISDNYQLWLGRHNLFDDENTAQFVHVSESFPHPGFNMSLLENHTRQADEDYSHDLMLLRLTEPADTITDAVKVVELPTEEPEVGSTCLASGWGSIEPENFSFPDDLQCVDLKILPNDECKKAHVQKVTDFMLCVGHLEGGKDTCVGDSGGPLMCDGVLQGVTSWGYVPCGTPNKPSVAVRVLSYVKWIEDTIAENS
structure (smiles),measurement,setting,value
"COCc1nn(Cc2ccc3c(c2)CN(C)C3)cc1C(=O)NCc1c(-n2cc(C)nn2)ccc(OC)c1F [Example 54, N-{[2-fluoro-3-methoxy-6-(4-methyl-1,2,3-triazol-1-yl)phenyl]methyl}-3-(methoxymethyl)-1-[(2-methyl-1,3-dihydroisoindol-5-yl)methyl]pyrazole-4-carboxamide]",IC50,Human KLK1,> 4 µM
same,IC50,Human plasma kallikrein,< 0.01 µM
same,solubility at 24 h,[1],0.82 mg/mL
same,Cmax,[2],0.154 µg/mL
same,IC50,Human FXIa,> 4 µM
"COCc1nn(Cc2ccc3c(c2)CN(C)CC3)cc1C(=O)NCc1c(-n2cc(C)nn2)ccc(OC)c1F [Example 2, N-{[2-Fluoro-3-methoxy-6-(4-methyl-1,2,3-triazol-1-yl)phenyl]methyl}-3-(methoxymethyl)-1-[(2-methyl-3,4-dihydro-1H-isoquinolin-7-yl)methyl]pyrazole-4-carboxamide]",IC50,Human KLK1,> 40 µM
same,IC50,Human plasma kallikrein,< 0.01 µM
same,solubility at 24 h,[1],0.71 mg/mL
same,Cmax,[2],0.134 µg/mL
same,IC50,Human FXIa,> 40 µM
"COCc1nn(Cc2ccc3c(c2)CNCC32CC2)cc1C(=O)NCc1c(-n2cc(C)nn2)ccc(OC)c1F [Example 127, 1-{2′,3′-dihydro-1′H-spiro[cyclopropane-1,4′-isoquinoline]-7′-ylmethyl}-N-{[2-fluoro-3-methoxy-6-(4-methyl-1,2,3-triazol-1-yl)phenyl]methyl}-3-(methoxymethyl)pyrazole-4-carboxamide]",IC50,Human KLK1,> 40 µM
same,IC50,Human plasma kallikrein,< 0.01 µM
same,solubility at 24 h,[1],0.81 mg/mL
same,Cmax,[2],0.009 µg/mL
same,IC50,Human FXIa,> 40 µM
"CCN1CCc2cc(Cn3cc(C(=O)NCc4c(-n5cc(C)nn5)ccc(OC)c4F)c(COC)n3)ccc2C1 [Example 38, 1-[(2-ethyl-3,4-dihydro-1H-isoquinolin-6-yl)methyl]-N-{[2-fluoro-3-methoxy-6-(4-methyl-1,2,3-triazol-1-yl)phenyl]methyl}-3-(methoxymethyl)pyrazole-4-carboxamide]",IC50,Human KLK1,> 40 µM
same,IC50,Human plasma kallikrein,< 0.01 µM
same,solubility at 24 h,[1],0.74 mg/mL
same,Cmax,[2],0.051 µg/mL
same,IC50,Human FXIa,> 40 µM
"COCc1nn(Cc2ccc3c(c2)CCN(C(C)C)C3)cc1C(=O)NCc1c(-n2ccc(C#N)n2)ccc(OC)c1F [Example 46, N-{[6-(3-cyanopyrazol-1-yl)-2-fluoro-3-methoxyphenyl]methyl}-1-[(2-isopropyl-3,4-dihydro-1H-isoquinolin-6-yl)methyl]-3-(methoxymethyl)pyrazole-4-carboxamide]",IC50,Human KLK1,> 40 µM
same,IC50,Human plasma kallikrein,< 0.01 µM
same,solubility at 24 h,[1],> 1 mg/mL
same,Cmax,[2],0.034 µg/mL
same,IC50,Human FXIa,> 40 µM
"COCc1nn(Cc2ccc3c(c2)CN(C(C)C)CC3)cc1C(=O)NCc1c(-n2ccc(C#N)n2)ccc(OC)c1F [Example 24, N-{[6-(3-cyanopyrazol-1-yl)-2-fluoro-3-methoxyphenyl]methyl}-1-[(2-isopropyl-3,4-dihydro-1H-isoquinolin-7-yl)methyl]-3-(methoxymethyl)pyrazole-4-carboxamide]",IC50,Human KLK1,> 40 µM
same,IC50,Human plasma kallikrein,< 0.01 µM
same,solubility at 24 h,[1],0.73 mg/mL
same,Cmax,[2],0.024 µg/mL
same,IC50,Human FXIa,23.8 µM
"COCc1nn(Cc2ccc3c(c2)CCN(C(C)C)C3)cc1C(=O)NCc1c(-n2cc(C)nn2)ccc(OC)c1F [Example 37, N-{[2-fluoro-3-methoxy-6-(4-methyl-1,2,3-triazol-1-yl)phenyl]methyl}-1-[(2-isopropyl-3,4-dihydro-1H-isoquinolin-6-yl)methyl]-3-(methoxymethyl)pyrazole-4-carboxamide]",IC50,Human KLK1,> 40 µM
same,IC50,Human plasma kallikrein,< 0.01 µM
same,solubility at 24 h,[1],> 1 mg/mL
same,Cmax,[2],0.038 µg/mL
same,IC50,Human FXIa,> 40 µM
"COCc1nn(Cc2ccc3c(c2)CN(C)CC3)cc1C(=O)NCc1c(-n2cc(C(F)F)nn2)ccc(OC)c1F [Example 1, N-({6-[4-(difluoromethyl)-1,2,3-triazol-1-yl]-2-fluoro-3-methoxyphenyl}methyl)-3-(methoxymethyl)-1-[(2-methyl-3,4-dihydro-1H-isoquinolin-7-yl)methyl]pyrazole-4-carboxamide]",IC50,Human KLK1,> 40 µM
same,IC50,Human plasma kallikrein,< 0.01 µM
same,solubility at 24 h,[1],0.93 mg/mL
same,Cmax,[2],0.088 µg/mL
same,IC50,Human FXIa,> 40 µM
"COCc1nn(Cc2ccc3c(c2)CN(C)CC3)cc1C(=O)NCc1c(-n2cnc(C(F)F)n2)ccc(OC)c1F [Example 15, N-({6-[3-(difluoromethyl)-1,2,4-triazol-1-yl]-2-fluoro-3-methoxyphenyl}methyl)-3-(methoxymethyl)-1-[(2-methyl-3,4-dihydro-1H-isoquinolin-7-yl)methyl]pyrazole-4-carboxamide]",IC50,Human KLK1,> 40 µM
same,IC50,Human plasma kallikrein,< 0.01 µM
same,solubility at 24 h,[1],> 1 mg/mL
same,Cmax,[2],0.078 µg/mL
same,IC50,Human FXIa,> 40 µM
"COCc1nn(Cc2ccc3c(c2)CN(C)CC3)cc1C(=O)NCc1c(-n2cnc(C(F)(F)F)n2)ccc(OC)c1F [Example 13, N-({2-fluoro-3-methoxy-6-[3-(trifluoromethyl)-1,2,4-triazol-1-yl]phenyl}methyl)-3-(methoxymethyl)-1-[(2-methyl-3,4-dihydro-1H-isoquinolin-7-yl)methyl]pyrazole-4-carboxamide]",IC50,Human KLK1,> 40 µM
same,IC50,Human plasma kallikrein,< 0.01 µM
same,solubility at 24 h,[1],0.86 mg/mL
same,Cmax,[2],0.088 µg/mL
same,IC50,Human FXIa,> 40 µM
"COCc1nn(Cc2ccc3c(c2)CN(C)CC32CC2)cc1C(=O)NCc1c(-n2cc(C)nn2)ccc(OC)c1F [Example 126, N-{[2-fluoro-3-methoxy-6-(4-methyl-1,2,3-triazol-1-yl)phenyl]methyl}-3-(methoxymethyl)-1-{2′-methyl-1′,3′-dihydrospiro[cyclopropane-1,4′-isoquinoline]-7′-ylmethyl}pyrazole-4-carboxamide]",IC50,Human KLK1,> 40 µM
same,IC50,Human plasma kallikrein,< 0.01 µM
same,solubility at 24 h,[1],0.88 mg/mL
same,Cmax,[2],0.063 µg/mL
same,IC50,Human FXIa,> 40 µM
"COCc1nn(Cc2ccc3c(c2)CN(C(C)C)CC3)cc1C(=O)NCc1c(-n2cnc(C(F)F)n2)ccc(OC)c1F [Example 23, N-({6-[3-(difluoromethyl)-1,2,4-triazol-1-yl]-2-fluoro-3-methoxyphenyl}methyl)-1-[(2-isopropyl-3,4-dihydro-1H-isoquinolin-7-yl)methyl]-3-(methoxymethyl)pyrazole-4-carboxamide]",IC50,Human KLK1,> 40 µM
same,IC50,Human plasma kallikrein,< 0.01 µM
same,solubility at 24 h,[1],0.87 mg/mL
same,Cmax,[2],0.02 µg/mL
same,IC50,Human FXIa,> 40 µM

# Reference: patent publication US11613527B2, “Enzyme inhibitors” (KalVista Pharmaceuticals Limited, priority 2019, dated 2023)
